The test relates to Human skin-derived iPS cells (253G1). In kind it is cell-based.

“Also recorded” adds a separate entry of the source. Bounds are passed on as bounds.

Take hemagglutinin [HA complex]: the “differentiation into other cells (RPE cell versus cell group with fibroblast-like morphology)” value is listed as “<<cell group; also recorded: <cell group”, the “formation of cell aggregates in three-dimensional layer structure” value was “small cell; also recorded: smaller cell”, the “intercellular adhesion of the cell aggregates” value was “moderately loosened” and the “number of cells that differentiated into RPE cells” value is on record as “increased strikingly”. Besides, the “number of fibroblast-like cell groups (undesired cells observed together with RPE cells)” value is listed as “decreased” and the “size of the cell aggregates” value is “became smaller”.
